Experiments:
IRAK4 = target: T1, IRAK4 (Homo sapiens, UniProt Q9NWZ3); assay: RBC HotSpot Kinase Assay, IRAK4; format: biochemical; parameters: purchased Reaction Biology (RBC), HotSpot kinase assay; conditions: isolated kinase, 33P-ATP
T1 sequence (Q9NWZ3 1-460): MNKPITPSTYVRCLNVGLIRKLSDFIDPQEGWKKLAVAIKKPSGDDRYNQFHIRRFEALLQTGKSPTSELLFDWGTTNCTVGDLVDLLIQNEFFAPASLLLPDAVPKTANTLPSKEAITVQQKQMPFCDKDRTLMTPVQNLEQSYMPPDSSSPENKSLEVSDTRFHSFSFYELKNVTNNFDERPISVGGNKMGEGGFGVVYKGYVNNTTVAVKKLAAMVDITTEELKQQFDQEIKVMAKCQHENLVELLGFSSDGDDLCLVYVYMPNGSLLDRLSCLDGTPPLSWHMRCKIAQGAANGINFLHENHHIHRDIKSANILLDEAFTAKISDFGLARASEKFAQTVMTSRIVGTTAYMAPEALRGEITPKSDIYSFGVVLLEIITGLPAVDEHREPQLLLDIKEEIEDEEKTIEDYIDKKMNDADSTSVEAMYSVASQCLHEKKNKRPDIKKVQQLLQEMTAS
Summary of the method: (§1)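 Kinase domain constructs, possibly truncated, were assayed radiometrically with 33P-ATP and substrate after 20 min compound preincubation, reacting 2 h at room temp.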

IRAK1 = target: T2, IRAK1 (Homo sapiens, UniProt P51617); assay: RBC HotSpot Kinase Assay, IRAK1; format: biochemical; conditions: isolated kinase, 33P-ATP
T2 construct: purchased Reaction Biology (RBC), HotSpot kinase assay
Summary of the method: as §1

MOLM14 F691L cells = assay: MOLM14 F691L cell viability assay (Cell Titer Glo); format: cell-based
Procedure: (§2) Both cell lines have activated FLT3 receptors, each of which carry additional resistance mutations in the kinase domain (D835Y and F691L, respectively).
(§3) MOLM14 D835Y and MOLM14 F691L cells were grown in RPMI-1640 media supplemented with 20% fetal bovine serum (FBS). For viability/cytotoxicity assessments, cells were seeded into 1536-well white polystyrene tissue culture-treated Greiner plates using a Multidrop Combi dispenser (ThermoFisher), in final volume 5 μL of growth media per well, at a density of 1000 cells per well. After cell addition, 23 nL of test compound were transferred into individual wells (22 doses tested for each test compound, with a 1:2 dilution series starting at 10 μM) via a 1536 pin-tool. Bortezomib (final concentration 2.3 μM) was used as a positive control for cell cytotoxicity. Plates were incubated for 48 hours at standard incubator conditions covered by a stainless steel gasketed lid to prevent evaporation. 48 hours post compound addition, 3 μL of Cell Titer Glo (Promega) were added to each well and plates were incubated at room temperature for 15 minutes with the stainless-steel lid in place. Luminescence readings were taken using a Viewlux imager (PerkinElmer) with a 2 second exposure time per plate.

MOLM14 D835Y cells = assay: MOLM14 D835Y cell viability assay (Cell Titer Glo); format: cell-based
Procedure: as §2, §3

FLT3 = target: T3, FLT3 (Homo sapiens, UniProt P36888); assay: RBC HotSpot Kinase Assay, FLT3; format: biochemical; parameters: purchased Reaction Biology (RBC), HotSpot kinase assay; conditions: isolated kinase, 33P-ATP
T3 sequence (P36888 27-993): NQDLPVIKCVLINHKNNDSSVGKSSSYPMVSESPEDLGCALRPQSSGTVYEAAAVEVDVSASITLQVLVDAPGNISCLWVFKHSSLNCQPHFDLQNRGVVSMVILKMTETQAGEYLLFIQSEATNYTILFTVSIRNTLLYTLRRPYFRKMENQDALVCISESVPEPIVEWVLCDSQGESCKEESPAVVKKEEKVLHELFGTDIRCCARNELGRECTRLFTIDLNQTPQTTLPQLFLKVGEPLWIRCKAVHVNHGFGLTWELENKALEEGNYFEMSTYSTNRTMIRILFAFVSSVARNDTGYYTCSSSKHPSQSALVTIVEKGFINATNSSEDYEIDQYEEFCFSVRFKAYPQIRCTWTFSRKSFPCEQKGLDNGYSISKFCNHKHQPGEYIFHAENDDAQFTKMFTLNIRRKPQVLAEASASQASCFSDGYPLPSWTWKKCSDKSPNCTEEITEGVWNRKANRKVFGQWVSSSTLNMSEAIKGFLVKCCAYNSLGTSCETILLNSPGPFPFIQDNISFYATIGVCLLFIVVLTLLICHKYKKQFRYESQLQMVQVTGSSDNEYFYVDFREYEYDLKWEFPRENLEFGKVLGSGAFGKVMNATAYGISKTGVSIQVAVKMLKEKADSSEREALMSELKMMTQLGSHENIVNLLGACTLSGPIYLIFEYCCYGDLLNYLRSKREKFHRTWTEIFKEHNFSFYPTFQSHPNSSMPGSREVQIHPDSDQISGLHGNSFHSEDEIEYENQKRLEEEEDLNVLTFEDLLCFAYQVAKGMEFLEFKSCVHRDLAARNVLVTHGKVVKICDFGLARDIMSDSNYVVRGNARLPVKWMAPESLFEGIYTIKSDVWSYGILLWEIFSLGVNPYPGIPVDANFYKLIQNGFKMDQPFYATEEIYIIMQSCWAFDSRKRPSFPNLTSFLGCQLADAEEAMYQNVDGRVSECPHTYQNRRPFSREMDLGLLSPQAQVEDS
Summary of the method: as §1

T2 sequence (P51617 whole entry): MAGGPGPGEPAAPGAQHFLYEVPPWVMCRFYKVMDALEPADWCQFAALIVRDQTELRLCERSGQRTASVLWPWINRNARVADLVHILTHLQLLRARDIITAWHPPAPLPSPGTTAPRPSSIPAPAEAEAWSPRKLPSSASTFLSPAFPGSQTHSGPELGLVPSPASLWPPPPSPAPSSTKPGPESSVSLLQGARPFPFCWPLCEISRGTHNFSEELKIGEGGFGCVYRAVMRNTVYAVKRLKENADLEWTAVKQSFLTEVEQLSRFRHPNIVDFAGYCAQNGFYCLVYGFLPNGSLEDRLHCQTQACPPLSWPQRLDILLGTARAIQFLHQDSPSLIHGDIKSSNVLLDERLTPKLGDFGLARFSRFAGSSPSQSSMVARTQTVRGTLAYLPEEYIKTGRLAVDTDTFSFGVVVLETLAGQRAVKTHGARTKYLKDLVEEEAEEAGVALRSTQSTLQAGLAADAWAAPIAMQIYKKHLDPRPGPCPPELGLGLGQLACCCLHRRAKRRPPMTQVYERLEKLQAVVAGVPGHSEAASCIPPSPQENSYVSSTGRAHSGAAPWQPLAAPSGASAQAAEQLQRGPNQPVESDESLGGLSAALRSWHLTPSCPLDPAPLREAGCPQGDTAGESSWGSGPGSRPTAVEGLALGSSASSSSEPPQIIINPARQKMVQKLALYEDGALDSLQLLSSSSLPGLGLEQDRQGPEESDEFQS

Structure (SMILES)	IC50 (IRAK4)	IC50 (IRAK1)	IC50 (MOLM14 F691L cells; Homo sapiens, MOLM-14, 48 h)	IC50 (MOLM14 D835Y cells; Homo sapiens, MOLM-14, 48 h)	IC50 (FLT3)	IC50 (MOLM14 D835Y cells; 48 hours)	IC50 (MOLM14 F691L cells; 48 hours)
O=C1COCCN1c1cn2c(-c3cccc(N[C@H]4CNC[C@@H]4F)n3)cnc2cn1 [Compound 110, 4-(3-(6-(((3S,4S)-4-fluoropyrrolidin-3-yl)amino)pyridin-2-yl)imidazo[1,2-a]pyrazin-6-yl)morpholin-3-one]	98 nM	4240 nM	1450 nM	154 nM	3 nM	–	–
CC(O)(c1cn2c(-c3nc(N[C@@H]4CCCNC4)c(F)cc3F)cnc2cn1)C(F)(F)F (single isomer, unassigned) [Compound 89]	< 0.5 nM	9 nM	649 nM	–	< 0.5 nM	41 nM	–
O=C1CCCCN1c1cn2c(-c3cccc(N[C@H]4CNC[C@@H]4F)n3)cnc2cn1 [Compound 114, 1-(3-(6-(((3S,4S)-4-fluoropyrrolidin-3-yl)amino)pyridin-2-yl)imidazo[1,2-a]pyrazin-6-yl)piperidin-2-one]	132 nM	> 10000 nM	4860 nM	460 nM	1 nM	–	–
CC(O)(c1cn2c(-c3cc(F)cc(N[C@@H]4CCCNC4)n3)cnc2cn1)C(F)(F)F (single isomer, unassigned) [Compound 87]	5 nM	46 nM	–	–	0.7 nM	116 nM	309 nM
CC(C)(C)c1cn2c(-c3cccc(N[C@H]4CNC[C@@H]4F)n3)cnc2cn1 [Compound 128, 6-(6-(tert-butyl)imidazo[1,2-a]pyrazin-3-yl)-N-((3S,4S)-4-fluoropyrrolidin-3-yl)pyridin-2-amine]	0.6 nM	108 nM	326 nM	58 nM	< 0.5 nM	–	–
O=S1(=O)CCCCN1c1cn2c(-c3nc(N[C@H]4CNCC[C@@H]4F)c(F)cc3F)cnc2cn1 [Compound 103, 2-(3-(3,5-difluoro-6-(((3S,4S)-4-fluoropiperidin-3-yl)amino)pyridin-2-yl)imidazo[1,2-a]pyrazin-6-yl)-1,2-thiazinane 1,1-dioxide]	13 nM	265 nM	1370 nM	193 nM	0.9 nM	–	–
O=C1COCCN1c1cn2c(-c3cccc(N[C@@H]4CCCNC4)n3)cnc2cn1 [Compound 111, (R)-4-(3-(6-(piperidin-3-ylamino)pyridin-2-yl)imidazo[1,2-a]pyrazin-6-yl)morpholin-3-one]	136 nM	2130 nM	344 nM	86 nM	0.5 nM	–	–
O=C1CCCN1c1cn2c(-c3cccc(N[C@@H]4CCCNC4)n3)cnc2cn1 [Compound 120, 1-[3-[6-[[(3R)-3-piperidyl]amino]-2-pyridyl]imidazo[1,2-a]pyrazin-6-yl]pyrrolidin-2-one]	15 nM	234 nM	86 nM	24 nM	< 0.5 nM	–	–
O=S1(=O)CCCCN1c1cn2c(-c3nc(N[C@H]4CNC[C@@H]4F)c(F)cc3F)cnc2cn1 [Compound 102, 2-(3-(3,5-difluoro-6-(((3S,4S)-4-fluoropyrrolidin-3-yl)amino)pyridin-2-yl)imidazo[1,2-a]pyrazin-6-yl)-1,2-thiazinane 1,1-dioxide]	6 nM	281 nM	4330 nM	386 nM	2 nM	–	–
FC(F)c1cn2c(-c3cccc(N[C@@H]4CCCNC4)n3)cnc2cn1 [Compound 17, (R)-6-(6-(difluoromethyl)imidazo[1,2-a]pyrazin-3-yl)-N-(piperidin-3-yl)pyridin-2-amine]	5 nM	288 nM	88 nM	10 nM	< 0.5 nM	–	–
O=S1(=O)CCCN1c1cn2c(-c3cccc(N[C@H]4CNC[C@@H]4F)n3)cnc2cn1 [Compound 95, 2-(3-(6-(((3S,4S)-4-fluoropyrrolidin-3-yl)amino)pyridin-2-yl)imidazo[1,2-a]pyrazin-6-yl)isothiazolidine 1,1-dioxide]	1 nM	43 nM	193 nM	21 nM	< 0.5 nM	–	–
CC(O)(c1cn2c(-c3nc(N[C@H]4CNCC[C@@H]4F)c(F)cc3F)cnc2cn1)C(F)(F)F (single isomer, unassigned) [Compound 92]	2 nM	11 nM	969 nM	87 nM	2 nM	–	–
O=S1(=O)CCCN1c1cn2c(-c3nc(N[C@H]4CNCC[C@@H]4F)c(F)cc3F)cnc2cn1 [Compound 106, 2-(3-(3,5-difluoro-6-(((3S,4S)-4-fluoropiperidin-3-yl)amino)pyridin-2-yl)imidazo[1,2-a]pyrazin-6-yl)isothiazolidine 1,1-dioxide]	3 nM	21 nM	122 nM	17 nM	< 0.5 nM	–	–
O=S1(=O)CCCN1c1cn2c(-c3nc(N[C@H]4CNC[C@@H]4F)c(F)cc3F)cnc2cn1 [Compound 105, 2-(3-(3,5-difluoro-6-(((3S,4S)-4-fluoropyrrolidin-3-yl)amino)pyridin-2-yl)imidazo[1,2-a]pyrazin-6-yl)isothiazolidine 1,1-dioxide]	1 nM	22 nM	686 nM	55 nM	< 0.5 nM	–	–
CC1(c2cn3c(-c4cccc(N[C@@H]5CCCNC5)n4)cnc3cn2)CC1 [Compound 2, (R)-6-(6-(1-methylcyclopropyl)imidazo[1,2-a]pyrazin-3-yl)-N-(piperidin-3-yl)pyridin-2-amine]	0.7 nM	67 nM	34 nM	7 nM	< 0.5 nM	–	–
FC(F)(F)COc1cn2c(-c3cccc(N[C@H]4CNCC45CC5)n3)cnc2cn1 [Compound 40, (R)-N-(6-(6-(2,2,2-trifluoroethoxy)imidazo[1,2-a]pyrazin-3-yl)pyridin-2-yl)-5-azaspiro[2.4]heptan-7-amine]	2 nM	101 nM	152 nM	23 nM	< 0.5 nM	–	–
O=C1NCCN1c1cn2c(-c3cccc(N[C@H]4CNC[C@@H]4F)n3)cnc2cn1 [Compound 117, 1-(3-(6-(((3S,4S)-4-fluoropyrrolidin-3-yl)amino)pyridin-2-yl)imidazo[1,2-a]pyrazin-6-yl)imidazolidin-2-one]	2 nM	75 nM	273 nM	41 nM	0.8 nM	–	–
CC(O)(c1cn2c(-c3nc(N[C@H]4CNC[C@@H]4F)c(F)cc3F)cnc2cn1)C(F)(F)F (single isomer, unassigned) [Compound 93]	< 0.5 nM	8 nM	–	–	1 nM	73 nM	969 nM

Source: patent US12612410B2 (CHILDREN'S HOSPITAL MEDICAL CENTER, priority 2020, dated 2026)
